B1: sBetaglycan: soluble betaglycan (TGF-β type III receptor), a heparan sulfate proteoglycan (protein, UniProt Q03167 21-787, looked up)
extracellular domain: GPEPGALCELSPVSASHPVQALMESFTVLSGCASRGTTGLPQEVHVLNLRTAGQGPGQLQREVTLHLNPISSVHIHHKSVVFLLNSPHPLVWHLKTERLATGVSRLFLVSEGSVVQFSSANFSLTAETEERNFPHGNEHLLNWARKEYGAVTSFTELKIARNIYIKVGEDQVFPPKCNIGKNFLSLNYLAEYLQPKAAEGCVMSSQPQNEEVHIIELITPNSNPYSAFQVDITIDIRPSQEDLEVVKNLILILKCKKSVNWVIKSFDVKGSLKIIAPNSIGFGKESERSMTMTKSIRDDIPSTQGNLVKWALDNGYSPITSYTMAPVANRFHLRLENNAEEMGDEEVHTIPPELRILLDPGALPALQNPPIRGGEGQNGGLPFPFPDISRRVWNEEGEDGLPRPKDPVIPSIQLFPGLREPEEVQGSVDIALSVKCDNEKMIVAVEKDSFQASGYSGMDVTLLDPTCKAKMNGTHFVLESPLNGCGTRPRWSALDGVVYYNSIVIQVPALGDSSGWPDGYEDLESGDNGFPGDMDEGDASLFTRPEIVVFNCSLQQVRNPSSFQEQPHGNITFNMELYNTDLFLVPSQGVFSVPENGHVYVEVSVTKAEQELGFAIQTCFISPYSNPDRMSHYTIIENICPKDESVKFYSPKRVHFPIPQADMDKKRFSFVFKPVFNTSLLFLQCELTLCTKMEKHPQKLPKCVPPDEACTSLDASIIWAMMQNKKTFTKPLAVIHHEAESKEKGPSMKEPNPISPPIFHGLDTLTV
modifications: extracellular domain
notes: soluble betaglycan (TGF-β type III receptor), a heparan sulfate proteoglycan

How the values were obtained:
[1] = molecular target: T1, recombinant human CTGF (rhCTGF) (Homo sapiens, UniProt P29279); assay: Cell adhesion assay (CTGF-mediated cell adhesion); assay type: cell-based; conditions: HFF cells; increasing concentrations added to the adhesion reaction; FIGS. 3C, 6A, 7A
T1 construct: in the presence of no CTGF, full-length CTGF, the N-terminal half of CTGF (NH2 fragment); made in house; host or cells: Hi5 insect cells infected with baculovirus (pFASTBAC1; virus generated in Sf9)
T1 sequence (P29279 27-349): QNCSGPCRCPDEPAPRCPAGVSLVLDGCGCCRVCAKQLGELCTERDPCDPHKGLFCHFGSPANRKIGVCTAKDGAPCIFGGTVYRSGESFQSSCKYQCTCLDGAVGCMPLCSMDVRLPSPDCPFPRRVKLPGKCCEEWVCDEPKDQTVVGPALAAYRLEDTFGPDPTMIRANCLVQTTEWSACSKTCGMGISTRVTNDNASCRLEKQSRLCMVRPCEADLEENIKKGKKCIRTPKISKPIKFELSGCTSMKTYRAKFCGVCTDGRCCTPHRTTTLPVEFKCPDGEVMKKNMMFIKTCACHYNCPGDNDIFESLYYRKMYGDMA
Method: Methods for measuring cell adhesion mediated by CTGF are generally known to those skilled in the art. (See, e.g., Babic et al. (1999) Mol Cell Biol 19:2958-296; Ball et al. (2003) J Endocrinol 176:R1-7.) In some experiments, wells of a MAXISORP plate (Nunc Nalgene) were treated with 10 μg/ml recombinant human CTGF (rhCTGF) to directly adsorb CTGF to the well. Alternatively, wells were coated with a human monoclonal antibody specific for human CTGF, and then were blocked with bovine serum albumin to prevent non-specific binding. 2 μg/1 ml rhCTGF or fragments thereof, or a vehicle control was added to each well. Plates were then washed 3 times with PBS, cells were added at a seed density of approximately 8×10^3 cells/well, and plates were incubated for 45 minutes at 37° C. Wells were then washed twice, and the number of cells retained in each well was measured using a CYQUANT cell proliferation assay kit (Molecular Probes, Inc., Eugene Oreg.). Alternatively, attached cells were lysed in 2% Triton and lactate dehydrogenase (LDH) activity was measured using a cytotoxicity detection (LDH) kit (Roche Diagnostics Corp., Chicago, Ill.). LDH levels were compared against a standard curve generated using known numbers of cells, and results of experiment were expressed as numbers of attached cells per well.
CTGF has been described as a heparin-binding growth factor. As cells may carry a variety of proteoglycan moieties on their surface, e.g., heparan sulfate, chondroitin sulfate, etc. (see FIG. 3A), the following experiment was conducted to determine the specificity of CTGF for such moieties. The cell adhesion and cell binding assays were conducted as described in Examples 3.1 and 3.2, respectively, except prior to seeding cells were treated for 1 hour at 37° C. with either vehicle, 4 units/ml heparinase I, or 2 units/ml chondroitinase ABC.
To further examine the requirement for heparan sulfate proteoglycans in CTGF-mediated cell adhesion, adhesion was measured in the presence of increasing amounts of heparin. […]

CTGF [2] = molecular target: T2, CTGF (Homo sapiens, UniProt P29279); assay: CTGF displacement assay (endogenous CTGF displaced from cells, sandwich ELISA); assay type: cell-based; parameters: measured displacement of CTGF endogenously produced by cells; endogenous in cells; host or cells: HLF and MG63 cells (constitutive or TGF-β2-induced expression); conditions: HLF or MG63 cells; titrated amounts of sulfated polysaccharides; FIGS. 6B, 7B
T2 sequence (P29279 27-349): T1 sequence (P29279 27-349)
Method: Alternatively, cell binding was measured using a CTGF displacement assay. The displacement assay used in the present examples measured displacement of CTGF endogenously produced by cells. HLF and MG63 cells were separately used in the displacement assay as follows. In all experiments, cells were plated in 96-well tissue culture plates at a seed density of 2.5×10^4 cells/well. Cells were incubated for approximately 24 hours at 37° C., and then medium was replaced with a serum-free medium containing titrated amounts of sulfated polysaccharides (glycosaminoglycans, GAGs). In some experiments, constitutive CTGF expression accounted for the displaced CTGF, whereas in other experiments additional levels of CTGF were induced by addition of TGF-β2 in culture media 30 minutes prior to change of media and addition of GAGs. MG63 cells were incubated for either 3 or 6 hrs, and HLF cells were incubated for 20 hrs, at 37° C., and then conditioned media was assayed for N-fragment and full-length CTGF using a sandwich ELISA assay. (See International Publication No. WO 03/024308.)
To determine size requirements for modulation of CTGF-mediated cell adhesion and cell binding, heparin moieties containing differing saccharide subunit number were examined. Polysaccharide lengths tested ranged from 10 to approximately 50 saccharides, and experiments were carried out as described in examples 3.1 and 3.3. […]

CTGF and betaglycan = molecular target: T3, CTGF and betaglycan (Homo sapiens, UniProt P29279); assay: Co-immunoprecipitation assay, binding between CTGF and betaglycan; conditions: soluble betaglycan, bFGF and CTGF mixed; dose-sensitive; FIG. 9
T3 sequence (P29279 27-349): T1 sequence (P29279 27-349)
Method: (§1) Co-immunoprecipitation is a purification procedure used to determine if two different molecules, e.g., proteins, directly interact. Basically, an antibody specific to a protein of interest is added to a cell lysis under conditions suitable for antibody binding to the protein. The antibody-protein complex is then collected, e.g., using protein-G sepharose, which binds most antibodies. Any molecules that are bound to the precipitated protein will also be collected. Identification of proteins can be determined by, e.g., western blot or by direct sequencing of the purified protein(s). Several commercial kits, e.g., the PROFOUND co-immunoprecipitation kit from Pierce Biotechnology, Inc. (Rockford Ill.) are also available.
(§2) In the present examples, co-immunoprecipitations were performed as follows. The surface of intact cells was iodinated with ^125I prior to lysing cells and fractionating on a CTGF affinity column. Alternatively, CTGF and labeled cells were incubated for a period sufficient for CTGF binding to cells, and then cells were lysed and immunoprecipitations were performed using anti-CTGF specific antibodies. Antibody complexes were collected from the lysate using protein-G sepharose, and pelleted by centrifugation. Proteins eluted from affinity columns or collected by immunoprecipitation were analyzed by fractionation on SDS-PAGE and visualized by autoradiography. […]

CTGF [3] = molecular target: T2, CTGF; assay: Co-immunoprecipitation assay, interaction with CTGF; assay type: binding; conditions: FIG. 8A, FIG. 9
Method: as §1, §2

CTGF [4] = molecular target: T2, CTGF; assay: CTGF binding assay (binding of CTGF to cells, FACS); assay type: cell-based; conditions: increasing concentrations of heparin or modified heparin, FIG. 4
Method: Methods for measuring binding of CTGF to cells are generally known to those skilled in the art. (See, e.g., Nishida (1998) Biochem Biophys Res Commun 247:905-909; Segarini et al. (2001) J Biol Chem 276:40659-40667.) In one method used herein, cells were suspended in media containing CTGF under conditions suitable for binding of CTGF to cellular targets, e.g., incubation at 4° C. Cells may optionally be treated prior to or concurrently with CTGF exposure; for example, cells may be treated with enzymes that alter cell surface moieties, molecules that compete competitively or non-competitively with CTGF for binding to cells, etc. Following incubation, cells were washed and then incubated with fluorescently-labeled anti-CTGF antibody. The level of CTGF binding was then measured using a FACS apparatus.
To determine the specificity of sulfation and charge distribution for CTGF-mediated cell adhesion and cell binding, experiments as described in Examples 3.1, 3.2, and 3.3, were performed with the following modification. Combination of HFF cells with CTGF was accompanied by addition of increasing concentrations of heparin that was modified to contain differing amounts of sulfation and/or acetylation.

Row | Molecule | CTGF-mediated (CTGF-dependent) cell adhesion, effect of added polysaccharide [1] | binding of CTGF to cells (displacement assay) (CTGF [2]) | binding between CTGF and betaglycan in the presence of the factor (CTGF and betaglycan) | interaction with CTGF (co-immunoprecipitation with anti-CTGF antibodies) (CTGF [3]) | binding of CTGF to HFF, inhibition (CTGF [4])
1 | dermatan sulfate [naturally sulfated dermatan] | no modulation | no modulation | – | – | –
2 | bFGF: basic fibroblast growth factor | – | – | adversely influenced | clear interaction | –
3 | chondroitin sulfate [naturally sulfated chondroitin] | no modulation | no modulation | – | – | –
4 | heparin | inhibited | – | – | – | substantially inhibit
5 | B1 | – | – | – | dose-sensitive interaction | –

— patent US20080254487A1, “Connective Tissue Growth Factor Signaling” (FIBROGEN, INC., priority 2004, published 2008)
